Ends that are not written are not given here. Peptide text beside a SMILES is read from it.
Columns and labels:
in vitro = in vitro ADME; conditions: cells or culture medium
Method: Figure 4 Long-term stability for the peptide […]1 in Postgate C medium (black) and in the supernatant of a 7-day-old culture of Desulfovibrio vulgaris (gray), analyzed with reversed-phase high-performance liquid chromatography; 100% peptide content corresponds with the peptide content at 0 h. Values are shown as means with standard deviation, n = 3.

[1] = system: Desulfovibrio vulgaris biofilm; format: cell-based, Desulfovibrio vulgaris DSM 644
Method: D. vulgaris DSM 644 was cultivated in Postgate medium (DSMZ medium 63) with a modification of 0.004 g/L FeSO4 × 7H2O and 0.3 g/L trisodium citrate. The medium was flushed with nitrogen gas. Incubation was performed at 37°C without shaking. The preparation of the MBEC assay was similar to the MBIC. A measure of 120 μL of bacterial suspension was added per well as growth check (n = 8) or as AMP test (n = 6 per AMP concentration) and 120 μL of medium as sterile control (n = 8). The microtiter plate was incubated for 72 h. Afterward, the […] transferred to the challenge plate consisting of 120 μL of AMP solution (1 mg/mL to 1.95 μg/mL), 120 μL of medium for growth check (n = 8), 120 μL of medium (n = 4) or 120 μL of water (n = 2) or 120 μL of AMP with a concentration of 1 mg/mL (n = 2) for sterile control (in Figure A3, a pipetting scheme is shown). Incubation was performed for 24 h. The […] washed with 0.9% NaCl and half of them were stained with crystal violet (see MBIC). The other half was transferred to the recovery plate containing 120 μL of medium per well and placed in the ultrasonic bath for 30 min. The […] removed and the microtiter plate was incubated for 48 h. After the incubation period of 48 h, OD600 was measured. An overview of the individual steps of the MBIC/MBEC assay is shown in Figure 1.  Figure 5 Minimum biofilm eradication concentration (MBEC) assay for Desulfovibrio vulgaris: OD600 of the recovery plate (48 h incubation) and OD570 of the challenge plate (72 h incubation) for different concentrations of four antimicrobial peptides: […]-33, Bactenecin, […]1 (black striped), and uninhibited sample (gray); mean and standard deviation were determined by error propagation; asterisk indicates significant reduction (p = 0.005).

[2] = system: Desulfovibrio vulgaris biofilm; format: cell-based, Desulfovibrio vulgaris DSM 644; conditions: 6 h preincubation, then peptide (1 mg/mL to 1.95 µg/mL, twofold dilution), further 66 h, 37°C anaerobic; polished steel rivets; consistent for OD600 and OD570 (crystal violet); n = 3 per concentration
Method: D. vulgaris DSM 644 was cultivated in Postgate medium (DSMZ medium 63) with a modification of 0.004 g/L FeSO4 × 7H2O and 0.3 g/L trisodium citrate. The medium was flushed with nitrogen gas. Incubation was performed at 37°C without shaking. Steel […]660 4 × 15 mm (Würth-Gruppe) served as the growth surface. These were applied in the following pretreated stages: (1) mechanically untreated; (2) roughened: two turns with silicon carbide sandpaper with a grit size of 180; (3) polished: two turns with silicon carbide sandpaper with a sequential grit size of 320, 400, 600, 800, and 1200. The steel […] cleaned in acetone, 2-propanol, and ethanol (Carl Roth GmbH & Co. KG) for 5 min each using an ultrasonic bath, frequency 47 KHz (Branson Ultrasonic Corporation). […] Routine measurements of OD600 and OD570 were performed using the InfiniteM[…] plate reader (Tecan Group AG). For measurements in the anaerobic chamber, OD600 was measured with a Stratus microplate reader (Cerillo Inc.). […] Figure 2 Minimum biofilm inhibitory concentration (MBIC) assay for Desulfovibrio vulgaris: OD600 and OD570 of the challenge plate (72 h incubation) for different concentrations of four antimicrobial peptides: […]-33, Bactenecin, […]1 (black striped), and uninhibited sample (gray); mean and standard deviation were determined by propagation of error; asterisks indicate significant reduction (p = 0.005).

Row | Molecule | remaining at 168 h (in vitro) [%] | remaining at 504 h (in vitro) [%] | Lowest peptide concentration with complete removal of the biofilm (total biofilm mass, OD570) ([1]; 72 h biofilm on steel rivets, challenge with peptide, crystal violet staining, OD570) [µg/mL] | Effect on OD600 of recovery plate below the MBEC95% ([1]; peptide concentrations 250 and 125 µg/mL) | Removal of total biofilm mass (OD570) at lower concentrations ([1]; peptide concentrations 250 and 125 µg/mL, crystal violet, OD570) | MBIC95% [2]
1 | FFGKVLKLIRKIF [DASamP1] | 70 | 56 |  |  |  | 
2 | CC[C@H](C)[C@H](NC(=O)[C@H](CCCNC(=N)N)NC(=O)[C@H](CS)NC(=O)[C@H](CC(C)C)NC(=O)[C@@H](N)CCCNC(=N)N)C(=O)N[C@H](C(=O)N[C@H](C(=O)N[C@H](C(=O)N[C@@H](CCCNC(=N)N)C(=O)N[C@H](C(=O)N[C@@H](CS)C(=O)N[C@@H](CCCNC(=N)N)C(=O)O)C(C)C)[C@@H](C)CC)C(C)C)C(C)C [Bactenecin] (H-RLCRIVVIRVCR-OH; N-terminus and C-terminus assumed) |  |  | 500 | partial effect | partial removal | no biofilm inhibitory effects

Source: article PMC10441178, “Antibiofilm assay for antimicrobial peptides combating the sulfate‐reducing bacteria Desulfovibrio vulgaris” (MicrobiologyOpen, 2023)
